# Measurements from paper PMC9266561, “1,3-Benzodioxole Derivatives Improve the Anti-Tumor Efficiency of Arsenicals” (International Journal of Molecular Sciences, 2022).
# Like-named read-outs stand apart in the source and are kept apart here.
# Legend:
# cancer cells = experiment: MTT assay, cancer cell lines taken together; assay type: cell-based; settings: even at a high dosage, Figure S2
# Description: The bioactivity of all the synthetic compounds was evaluated by a MTT assay (Table 1, Tables S1 and S2) against two leukemia cell lines, Molm-13 and NB4; two solid tumor cell lines, HeLa (human cervix cell line) and 4T1 (breast cancer cell line); and two normal cell lines, COS-7 (African green monkey kidney cell line) and rat PBMC (peripheral blood mononuclear cell line).
# Cells were cultured in 96-well plates overnight, followed by adding 80 μL of a related medium containing compounds of different concentrations and dissolved in DMSO for 24 h or 48 h. Then, 40 μL of MTT (2.5 mg/mL) was added and the cells were incubated for another 4 h. The cells were then dissolved in 100 μL of 10% SDS solution or DMSO to release and dissolve the purple MTT products, followed by absorbance detection (BioTek, Winooski, VT, USA).
# HeLa = experiment: cells; assay type: cell-based, human; settings: Homo sapiens, HeLa
# NB4 = experiment: cells; assay type: cell-based; settings: Homo sapiens
# COS-7 = experiment: cells; assay type: cell-based, African green monkey; settings: Chlorocebus sabaeus
# PBMC = experiment: cells; assay type: cell-based, rat; settings: Rattus norvegicus, PBMC
# 4T1 = experiment: cells; assay type: cell-based; settings: Mus musculus
# Molm-13 = experiment: cells; assay type: cell-based; settings: Homo sapiens
# [1] = NB-4, 24 h, read-out: IC50 NB4 24 h
# [2] = NB-4, 48 h, read-out: IC50 NB4 48 h
# [3] = COS-7, 24 h, read-out: IC50 COS-7 24 h
# [4] = COS-7, 48 h, read-out: IC50 COS-7 48 h
# [5] = 4T1, 24 h, read-out: IC50 4T1 24 h
# [6] = 4T1, 48 h, read-out: IC50 4T1 48 h
# [7] = MOLM-13, 24 h, read-out: IC50 Molm
# [8] = MOLM-13, 24 h, read-out: IC50 Molm 24 h
# [9] = MOLM-13, 48 h, read-out: IC50 Molm
# [10] = MOLM-13, 48 h, read-out: IC50 Molm 48 h
SMILES,anti-proliferation activity to cancer cells (cancer cells),"IC50 (HeLa; 24 h, read-out: IC50 HeLa 24 h) [nM]","IC50 (HeLa; 48 h, read-out: IC50 HeLa 48 h) [nM]","IC50 (NB4; NB-4, 24 h, read-out: IC50 NB4) [nM]",IC50 (NB4; [1]) [nM],"IC50 (NB4; NB-4, 48 h, read-out: IC50 NB4) [nM]",IC50 (NB4; [2]) [nM],IC50 (COS-7; [3]) [nM],IC50 (COS-7; [4]) [nM],"IC50 (PBMC; 24 h, read-out: IC50 PBMC 24 h) [nM]","IC50 (PBMC; 48 h, read-out: IC50 PBMC 48 h) [nM]",IC50 (4T1; [5]) [nM],IC50 (4T1; [6]) [nM],IC50 (Molm-13; [7]) [nM],IC50 (Molm-13; [8]) [nM],IC50 (Molm-13; [9]) [nM],IC50 (Molm-13; [10]) [nM],"IC50 (4T1; 4T1, 24 h, read-out: IC50 4T1) [nM]","IC50 (4T1; 4T1, 48 h, read-out: IC50 4T1) [nM]"
"O=C(O)c1ccc2c(c1)OCO2 [1,3-benzodioxole derivative, piperonylic acid]",no anti-proliferation activity,–,–,–,–,–,–,–,–,–,–,–,–,–,–,–,–,–,–
"CC(=O)Oc1ccc(C(=O)Nc2ccc([As]3SCCCS3)cc2)cc1 [AZ2, 4-((4-(1,3,2-dithiarsinan-2-yl)phenyl)carbamoyl)phenyl acetate]",–,800,500,600 ± 50,600,600 ± 30,600,2200,2100,5200,4900,2000,1000,1110 ± 100,1100,1010 ± 20,1000,–,–
"COc1ccc(C(=O)Nc2ccc([As]3SCCCS3)cc2)cc1OC [DAZ2, N-(4-(1,3,2-dithiarsinan-2-yl)phenyl)-3,4-dimethoxybenzamide]",–,2300,1060,–,1710,–,1140,7100,3300,6200,5700,1500,1200,–,900,–,750,–,–
"COc1ccc(C(=O)Nc2ccccc2[As]2SCCCS2)cc1OC [DAZ5, N-(2-(1,3,2-dithiarsinan-2-yl)phenyl)-3,4-dimethoxybenzamide]",–,810,550,–,800,–,510,1610,1270,4100,3500,600,500,–,450,–,320,–,–
"CCc1ccc(C(=O)Nc2ccc([As]3SCCCS3)cc2)cc1 [EZ2, N-(4-(1,3,2-dithiarsinan-2-yl)phenyl)-4-ethylbenzamide]",–,1010,810,–,410,–,300,4200,2100,3700,2900,1400,1400,–,1100,–,1020,1400 ± 120,1400 ± 120
"O=C(Nc1ccc([As]2SCCCS2)cc1)c1ccc(F)cc1 [FZ2, N-(4-(1,3,2-dithiarsinan-2-yl)phenyl)-4-fluorobenzamide]",–,1200,400,–,400,–,300,3500,2200,5500,4700,2300,2200,–,1200,–,1000,–,–
"O=C(Nc1ccccc1[As]1SCCCS1)c1ccc(F)cc1 [FZ5, N-(2-(1,3,2-dithiarsinan-2-yl)phenyl)-4-fluorobenzamide]",–,350,150,150 ± 100,150,150 ± 20,150,1100,800,2400,1820,700,600,500 ± 10,500,500 ± 20,500,–,–
"COc1cc(C(=O)Nc2ccc([As]3SCCCS3)cc2)cc(OC)c1O [HDZ2, N-(4-(1,3,2-dithiarsinan-2-yl)phenyl)-4-hydroxy-3,5-dimethoxybenzamide]",–,2000,1010,–,800,–,500,9100,3500,5800,4900,1000,1010,600 ± 120,600,600 ± 120,600,–,–
"Cc1ccc(C(=O)Nc2ccc([As]3SCCCS3)cc2)cc1 [MZ2, N-(4-(1,3,2-dithiarsinan-2-yl)phenyl)-4-methylbenzamide]",–,610,400,–,400,–,300,3400,1210,3400,2700,1200,910,–,1200,–,800,–,400 ± 110
"O=C(Nc1ccc([As]2SCCCS2)cc1)c1ccc2c(c1)OC(F)(F)O2 [PFZ2, N-(4-(1,3,2-dithiarsinan-2-yl)phenyl)-2,2-difluorobenzo[d][1,3]dioxole-5-carboxamide]",–,500,150,–,500,–,300,6000,3500,6300,5700,1000,800,–,800,–,700,–,–
"O=C(Nc1ccc([As]2SCCCS2)cc1)c1ccc2c(c1)OCO2 [PZ2, N-(4-(1,3,2-dithiarsinan-2-yl)phenyl)benzo[d][1,3]dioxole-5-carboxamide]",–,700,440,850 ± 100,700,–,440,4100,1750,6400,5300,2600,3400,–,1060,–,750,2550 ± 220,3350 ± 420
"O=C(Nc1ccccc1[As]1SCCCS1)c1ccc2c(c1)OCO2 [PZ5, N-(2-(1,3,2-dithiarsinan-2-yl)phenyl)benzo[d][1,3]dioxole-5-carboxamide]",–,260,140,300 ± 30,260,200 ± 20,140,1010,820,5000,4500,400,830,–,270,–,240,–,–
"COc1cc(C(=O)Nc2ccc([As]3SCCCS3)cc2)cc(OC)c1OC [TAZ2, N-(4-(1,3,2-dithiarsinan-2-yl)phenyl)-3,4,5-trimethoxybenzamide]",–,2000,1040,–,1000,–,600,9100,5200,7300,6500,3500,2200,–,1600,–,1500,–,–
"COc1cc(C(=O)Nc2ccccc2[As]2SCCCS2)cc(OC)c1OC [TAZ5, N-(2-(1,3,2-dithiarsinan-2-yl)phenyl)-3,4,5-trimethoxybenzamide]",–,800,500,–,200,–,150,2000,1800,2200,1540,700,700,–,710,–,700,700 ± 30,700 ± 30
